Measurements from ChEMBL document CHEMBL5042519, “Design and synthesis of marine sesterterpene analogues as novel estrogen receptor α degraders for breast cancer treatment” (Eur J Med Chem, 2022).
pIC50: −log10 of the molar value. The source made the active and inactive calls. The calls are words filed in the database; no cut-off is given here.

Columns and labels:
[1] = test system: MCF7; assay: Antiproliferative activity against human MCF7/ADR cells assessed as reduction in cell viability after 48 hrs by MTT assay; type: functional, cell-based; details: MCF7, 48 h
[2] = Antiproliferative activity against human MCF-10A cells assessed as reduction in cell viability after 48 hrs by MTT assay; type: toxicity, cell-based
[3] = Selectivity index, ratio of IC50 for antiproliferative activity against human MCF-10A cells to IC50 for antiproliferative activity against human MDA-MB-231 cells by MTT assay; type: toxicity, cell-based; details: MCF-10A cells versus MDA-MB-231 cells, read-out: Ratio IC50
[4] = Resistance index, ratio of IC50 for antiproliferative activity against human MCF7/ADR cells to IC50 for antiproliferative activity against human MCF7 cells; type: functional
[5] = test system: MDA-MB-231; assay: Antiproliferative activity against human MDA-MB-231 cells assessed as reduction in cell viability after 48 hrs by MTT assay; details: MDA-MB-231, 48 h
[6] = test system: MCF7; assay: Antiproliferative activity against human MCF7 cells assessed as reduction in cell viability after 48 hrs by MTT assay; type: functional, cell-based; details: MCF7, 48 h
[7] = target: T1, Estrogen receptor (Homo sapiens) (UniProt P03372); assay: Induction of ERalpha degradation in human MCF7 cells assessed as decrease in ERalpha protein expression at 1 uM incubated for 24 hrs by Western blot analysis; type: cell-based
T1 sequence (whole entry): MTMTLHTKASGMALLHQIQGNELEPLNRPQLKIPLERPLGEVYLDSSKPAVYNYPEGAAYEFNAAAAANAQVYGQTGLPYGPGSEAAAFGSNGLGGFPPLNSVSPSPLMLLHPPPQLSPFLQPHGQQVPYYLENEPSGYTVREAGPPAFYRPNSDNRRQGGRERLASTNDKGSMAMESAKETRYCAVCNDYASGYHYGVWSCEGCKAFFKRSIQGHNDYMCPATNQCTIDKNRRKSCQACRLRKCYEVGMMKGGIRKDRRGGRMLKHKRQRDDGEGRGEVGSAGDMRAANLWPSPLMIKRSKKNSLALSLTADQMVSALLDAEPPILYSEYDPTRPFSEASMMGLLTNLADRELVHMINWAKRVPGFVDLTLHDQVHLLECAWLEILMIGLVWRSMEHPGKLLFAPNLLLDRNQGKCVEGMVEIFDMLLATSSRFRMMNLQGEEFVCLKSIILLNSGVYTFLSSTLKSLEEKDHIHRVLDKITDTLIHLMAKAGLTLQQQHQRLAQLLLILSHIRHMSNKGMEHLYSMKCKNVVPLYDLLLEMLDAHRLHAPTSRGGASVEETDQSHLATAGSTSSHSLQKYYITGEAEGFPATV

[8] = Metabolic stability in rat plasma assessed as parent compound remaining incubated for 60 mins in presence of NADPH by UPLC-MS analysis; type: ADME, cell-free; details: read-out: Stability
[9] = Metabolic stability in rat liver microsomes assessed as assessed as intrinsic clearance incubated for 60 mins in presence of NADPH by UPLC-MS analysis; type: ADME, Microsome; details: read-out: CLH

pIC50 [1] | pIC50 [5] | pIC50 [6] | Activity [7] | remaining at 1 h [8] [%] | microsomal CLint [9] [µL/min/mg] | Compound | IC50 at 48 h [2] [nM] | selectivity ratio [3] | Ratio IC50 [4]
5.95 | 6.11 | 5.60 | – | – | – | CCCCCCCCCOC(=O)/C=C\C=C/[C@H](C)[C@H]1CC[C@]2(C)C[C@@H]3C(C)=CC(=O)[C@H]3/C(C=O)=C\C[C@@H]12 | 4830 | 1.91 | 0.44
6.10 | 6.19 | 5.98 | Active | – | – | CCCCCCOC(=O)/C=C\C=C/[C@H](C)[C@H]1CC[C@]2(C)C[C@@H]3C(C)=CC(=O)[C@H]3/C(C=O)=C\C[C@@H]12 | 1580 | 1.52 | 0.76
6.06 | 6.27 | 6.16 | Active | – | – | CC1=CC(=O)[C@H]2/C(C=O)=C\C[C@H]3[C@@H]([C@@H](C)/C=C\C=C/C(=O)OCCOCCOC(=O)CC45CC6CC(CC(C6)C4)C5)CC[C@]3(C)C[C@H]12 | 2400 | 3.48 | 1.26
5.61 | 5.68 | 5.41 | Active | 97 | 14.5 | CC(C)=C/C=C\[C@H](C)[C@H]1CC[C@]2(C)C[C@@H]3C(C)=CC(=O)[C@H]3/C(C=O)=C\C[C@@H]12 | 3680 | 0.94 | 0.63
